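48-hour exposure; five concentrations; linearly interpolated endpoints. TGI: total growth inhibition.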
What was measured:
Experiment in all cases: NCI-60 cell line screen, 48 h
U251 CNS = test system: U251 CNS
T-47D breast = test system: T-47D breast
OVCAR-5 ovarian = test system: OVCAR-5 ovarian
HOP-62 NSCLC = test system: HOP-62 NSCLC
KM12 colon = test system: KM12 colon
OVCAR-8 ovarian = test system: OVCAR-8 ovarian
K-562 leukemia = test system: K-562 leukemia
OVCAR-3 ovarian = test system: OVCAR-3 ovarian
NCI-H460 lung = test system: NCI-H460 lung
MCF7 breast = test system: MCF7 breast
UACC-62 melanoma = test system: UACC-62 melanoma
SK-MEL-5 melanoma = test system: SK-MEL-5 melanoma
HOP-92 NSCLC = test system: HOP-92 NSCLC
TK-10 renal = test system: TK-10 renal
UO-31 renal = test system: UO-31 renal
786-0 renal = test system: 786-0 renal
SN12C renal = test system: SN12C renal
CAKI-1 renal = test system: CAKI-1 renal
EKVX NSCLC = test system: EKVX NSCLC
SNB-19 CNS = test system: SNB-19 CNS
M14 melanoma = test system: M14 melanoma
IGROV1 ovarian = test system: IGROV1 ovarian
COLO 205 colon = test system: COLO 205 colon
MOLT-4 leukemia = test system: MOLT-4 leukemia
MALME-3M melanoma = test system: MALME-3M melanoma
BT-549 breast = test system: BT-549 breast
HCT-15 colon = test system: HCT-15 colon
SF-295 CNS = test system: SF-295 CNS
HL-60(TB) leukemia = test system: HL-60(TB) leukemia
NCI-H522 lung = test system: NCI-H522 lung
HCT-116 colon = test system: HCT-116 colon
UACC-257 melanoma = test system: UACC-257 melanoma
DU-145 prostate = test system: DU-145 prostate
SNB-75 CNS = test system: SNB-75 CNS
SK-MEL-2 melanoma = test system: SK-MEL-2 melanoma
ACHN renal = test system: ACHN renal
A498 renal = test system: A498 renal
SW-620 colon = test system: SW-620 colon
LOX IMVI melanoma = test system: LOX IMVI melanoma
HT29 colon = test system: HT29 colon
PC-3 prostate = test system: PC-3 prostate
NCI-H23 lung = test system: NCI-H23 lung
A549 NSCLC = test system: A549 NSCLC
RXF 393 renal = test system: RXF 393 renal
MDA-N = test system: MDA-N
NCI-H226 lung = test system: NCI-H226 lung
SK-MEL-28 melanoma = test system: SK-MEL-28 melanoma
NCI/ADR-RES ovarian = test system: NCI/ADR-RES ovarian
MDA-MB-231 breast = test system: MDA-MB-231 breast
RPMI-8226 leukemia = test system: RPMI-8226 leukemia
SK-OV-3 ovarian = test system: SK-OV-3 ovarian
OVCAR-4 ovarian = test system: OVCAR-4 ovarian
HCC-2998 colon = test system: HCC-2998 colon
MDA-MB-435 = test system: MDA-MB-435
CCRF-CEM leukemia = test system: CCRF-CEM leukemia

Work on `FC1CCN(C2(c3cccs3)CCCCC2)CC1` yielded a TGI (U251 CNS) greater than 100 µM, a TGI (T-47D breast) greater than 100 µM and a TGI (OVCAR-5 ovarian) greater than 100 µM. For the same compound, the TGI (HOP-62 NSCLC) was greater than 100 µM, the TGI (KM12 colon) was greater than 100 µM and the TGI (OVCAR-8 ovarian) was greater than 100 µM. The TGI (K-562 leukemia) was greater than 100 µM, the TGI (OVCAR-3 ovarian) was greater than 100 µM and the TGI (NCI-H460 lung) was greater than 100 µM. It also gave a TGI (MCF7 breast) greater than 100 µM, a TGI (UACC-62 melanoma) greater than 100 µM and a TGI (SK-MEL-5 melanoma) greater than 100 µM. It also gave a TGI (HOP-92 NSCLC) greater than 100 µM, a TGI (TK-10 renal) greater than 100 µM and a TGI (UO-31 renal) greater than 100 µM. It also gave a TGI (786-0 renal) greater than 100 µM, a TGI (SN12C renal) greater than 100 µM and a TGI (CAKI-1 renal) greater than 100 µM. The TGI (EKVX NSCLC) was greater than 100 µM, the TGI (SNB-19 CNS) was greater than 100 µM and the TGI (M14 melanoma) was greater than 100 µM. The TGI (IGROV1 ovarian) was greater than 100 µM, the TGI (COLO 205 colon) was greater than 100 µM and the TGI (MOLT-4 leukemia) was greater than 100 µM. It also gave a TGI (MALME-3M melanoma) greater than 100 µM, a TGI (BT-549 breast) greater than 100 µM and a TGI (HCT-15 colon) greater than 100 µM. It also gave a TGI (SF-295 CNS) greater than 100 µM, a TGI (HL-60(TB) leukemia) greater than 100 µM and a TGI (NCI-H522 lung) greater than 100 µM. The TGI (HCT-116 colon) was greater than 100 µM, the TGI (UACC-257 melanoma) was greater than 100 µM and the TGI (DU-145 prostate) was greater than 100 µM. For the same compound, the TGI (SNB-75 CNS) was greater than 100 µM, the TGI (SK-MEL-2 melanoma) was greater than 100 µM and the TGI (ACHN renal) was greater than 100 µM. For the same compound, the TGI (A498 renal) was greater than 100 µM, the TGI (SW-620 colon) was greater than 100 µM and the TGI (LOX IMVI melanoma) was greater than 100 µM. It also gave a TGI (HT29 colon) greater than 100 µM, a TGI (PC-3 prostate) greater than 100 µM and a TGI (NCI-H23 lung) greater than 100 µM. It also gave a TGI (A549 NSCLC) greater than 100 µM, a TGI (RXF 393 renal) greater than 100 µM and a TGI (MDA-N) greater than 100 µM. The TGI (NCI-H226 lung) was greater than 100 µM, the TGI (SK-MEL-28 melanoma) was greater than 100 µM and the TGI (NCI/ADR-RES ovarian) was greater than 100 µM. The TGI (MDA-MB-231 breast) was greater than 100 µM, the TGI (RPMI-8226 leukemia) was greater than 100 µM and the TGI (SK-OV-3 ovarian) was greater than 100 µM. The TGI (OVCAR-4 ovarian) was greater than 100 µM, the TGI (HCC-2998 colon) was greater than 100 µM and the TGI (MDA-MB-435) was greater than 100 µM.
`CCOC(=O)N(CC)c1c(C(F)(F)F)cc(-c2ccccc2)[nH]c1=O` gave a TGI (U251 CNS) greater than 100 µM, a TGI (T-47D breast) greater than 100 µM and a TGI (OVCAR-5 ovarian) greater than 100 µM. It also gave a TGI (HOP-62 NSCLC) greater than 100 µM, a TGI (KM12 colon) greater than 100 µM and a TGI (OVCAR-8 ovarian) greater than 100 µM. The TGI (K-562 leukemia) was greater than 100 µM, the TGI (OVCAR-3 ovarian) was greater than 100 µM and the TGI (NCI-H460 lung) was greater than 100 µM. For the same compound, the TGI (MCF7 breast) was greater than 100 µM, the TGI (UACC-62 melanoma) was greater than 100 µM and the TGI (SK-MEL-5 melanoma) was greater than 100 µM. It also gave a TGI (HOP-92 NSCLC) greater than 100 µM, a TGI (TK-10 renal) greater than 100 µM and a TGI (UO-31 renal) greater than 100 µM. The TGI (CCRF-CEM leukemia) was 63.8 µM, the TGI (786-0 renal) was greater than 100 µM and the TGI (SN12C renal) was greater than 100 µM. It also gave a TGI (CAKI-1 renal) greater than 100 µM, a TGI (EKVX NSCLC) of 95.1 µM and a TGI (SNB-19 CNS) greater than 100 µM. The TGI (M14 melanoma) was greater than 100 µM, the TGI (IGROV1 ovarian) was greater than 100 µM and the TGI (COLO 205 colon) was greater than 100 µM. It also gave a TGI (MOLT-4 leukemia) of 70.1 µM, a TGI (BT-549 breast) greater than 100 µM and a TGI (HCT-15 colon) greater than 100 µM. For the same compound, the TGI (SF-295 CNS) was greater than 100 µM, the TGI (HL-60(TB) leukemia) was 30 µM and the TGI (HCT-116 colon) was greater than 100 µM. It also gave a TGI (UACC-257 melanoma) greater than 100 µM, a TGI (DU-145 prostate) greater than 100 µM and a TGI (SK-MEL-2 melanoma) greater than 100 µM. The TGI (ACHN renal) was greater than 100 µM, the TGI (A498 renal) was greater than 100 µM and the TGI (SW-620 colon) was greater than 100 µM. For the same compound, the TGI (LOX IMVI melanoma) was greater than 100 µM, the TGI (HT29 colon) was greater than 100 µM and the TGI (PC-3 prostate) was greater than 100 µM. It also gave a TGI (NCI-H23 lung) greater than 100 µM, a TGI (A549 NSCLC) greater than 100 µM and a TGI (RXF 393 renal) greater than 100 µM. The TGI (MDA-N) was 53.9 µM, the TGI (NCI-H226 lung) was greater than 100 µM and the TGI (SK-MEL-28 melanoma) was greater than 100 µM. It also gave a TGI (NCI/ADR-RES ovarian) greater than 100 µM, a TGI (MDA-MB-231 breast) greater than 100 µM and a TGI (RPMI-8226 leukemia) of 39.3 µM. It also gave a TGI (SK-OV-3 ovarian) greater than 100 µM, a TGI (OVCAR-4 ovarian) of 94.8 µM and a TGI (HCC-2998 colon) greater than 100 µM. It also gave a TGI (MDA-MB-435) of 56.7 µM.

— PubChem BioAssay (NCI)
